Source: patent publication US5731309A, “Substituted heteroalkyleneamine neurokinin antagonists” (Zeneca Limited, priority 1994, dated 1998)

Assays:
human NK1 receptor = molecular target: T1, human NK1 receptor (Homo sapiens, UniProt P25103); assay: SP Receptor Binding Assay (Test A); conditions: antagonism of SP binding; human NK1 receptor expressed in MEL cells
T1 construct: expressed in transfected cells; host or cells: Mouse Erythroleukemia (MEL) cells
From the text: SP Receptor Binding Assay (Test A)
The human NK1 receptor was isolated and characterized as described in: B. Hopkins, et al. "Isolation and characterization of the human lung NK1 receptor cDNA" Biochem. Biophys. Res. Comm., 1991, 180, 1110-1117; and the NK1 receptor was expressed in Mouse Erythroleukemia (MEL) cells using a procedure similar to that described in Test B below.

human NK2 receptor = molecular target: T2, human NK2 receptor (Homo sapiens, UniProt P21452); assay: Neurokinin A (NKA) Receptor Binding Assay (Test B); conditions: antagonism of NKA binding; human NK2 receptor expressed in MEL cells
T2 construct: expressed in transfected cells; host or cells: Mouse Erythroleukemia (MEL) cells
T2 sequence (P21452 1-398): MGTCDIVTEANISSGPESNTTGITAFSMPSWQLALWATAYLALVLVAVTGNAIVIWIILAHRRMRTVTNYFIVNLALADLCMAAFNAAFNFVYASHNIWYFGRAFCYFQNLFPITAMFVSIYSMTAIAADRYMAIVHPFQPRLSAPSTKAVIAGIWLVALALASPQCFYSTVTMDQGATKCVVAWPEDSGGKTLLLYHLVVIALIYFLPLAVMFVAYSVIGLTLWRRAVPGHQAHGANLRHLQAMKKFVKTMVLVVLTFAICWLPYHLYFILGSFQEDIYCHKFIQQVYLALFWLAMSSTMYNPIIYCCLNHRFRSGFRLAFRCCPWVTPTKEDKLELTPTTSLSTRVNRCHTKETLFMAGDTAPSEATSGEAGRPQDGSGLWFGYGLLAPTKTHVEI
From the text: Neurokinin A (NKA) Receptor Binding Assay (Test B)

NK1 receptor = molecular target: T3, NK1 receptor (Oryctolagus cuniculus, UniProt G1SEI7); assay: Rabbit Pulmonary Artery: NK1 in vitro functional assay (Test C); parameters: species or system rabbit (male New Zealand white); conditions: -log molar KB, agonist ASMSP, read-out: pKB in Test C (converted)
T3 construct: The left and right branches of the pulmonary artery are isolated from the rest of the lung tissue; from tissue; host or cells: rabbit (male New Zealand white) pulmonary artery ring segments with intact endothelium
Method: Rabbit Pulmonary Artery: NK1 in vitro functional assay (Test C)
Male New Zealand white rabbits are killed by lethal injection (Nembutal, 60 mg/kg into a cannulated ear vein). Heparin, 0.0025 ml/kg of a 1000 U/ml solution, is injected into the ear vein prior to nembutal in order to decrease blood coagulation. The left and right branches of the pulmonary artery are isolated from the rest of the lung tissue and cut in half to provide four ring segments from each animal. […] Changes in tension are measured on a Grass polygraph via Grass FT-03 force transducers. […]
Potencies of the compounds are determined by calculating the apparent dissociation constants (KB) for each concentration tested using the standard equation: […]
where dose ratio=antilog[(agonist-log molar EC50 without compound)-(agonist-log molar EC50 with compound)]. The KB values are converted to the negative logarithms and expressed as -log molar KB (i.e. pKB). […] The EC50 values are converted to negative logarithms and expressed as -log molar EC50. Maximum relaxation responses to ASMSP are determined by expressing the maximum response to the agonist as a percentage of the relaxation caused by papaverine.

NK2 receptor = molecular target: T4, NK2 receptor (Cavia porcellus, UniProt Q64077); assay: Guinea Pig Trachea Assay: NK2 in vitro functional assay (Test D); conditions: -log molar KB, agonist BANK, read-out: pKB in Test D (converted)
T4 construct: The trachea are removed, trimmed of excess tissue (including removal of epithelium) and cut in spiral fashion; from tissue; host or cells: guinea pig trachea strips, epithelium removed
T4 sequence (Q64077 1-402): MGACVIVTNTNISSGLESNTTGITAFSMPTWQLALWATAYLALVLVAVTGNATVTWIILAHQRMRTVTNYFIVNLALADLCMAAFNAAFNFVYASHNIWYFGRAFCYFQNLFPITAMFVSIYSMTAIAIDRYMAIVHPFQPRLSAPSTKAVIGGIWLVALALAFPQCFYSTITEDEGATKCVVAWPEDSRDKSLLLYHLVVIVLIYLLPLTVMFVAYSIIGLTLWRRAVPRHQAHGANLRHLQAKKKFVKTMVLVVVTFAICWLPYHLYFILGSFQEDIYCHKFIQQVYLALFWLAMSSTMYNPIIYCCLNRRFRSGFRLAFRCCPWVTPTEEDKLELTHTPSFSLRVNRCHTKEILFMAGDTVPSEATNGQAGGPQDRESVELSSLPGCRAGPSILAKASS
Method: Guinea Pig Trachea Assay: NK2 in vitro functional assay (Test D)
Male guinea pigs are killed by a sharp blow to the back of the head followed by exsanguination. The trachea are removed, trimmed of excess tissue (including removal of epithelium) and cut in spiral fashion. Each longitudinally cut tracheal segment is suspended as a strip in a water-jacketed (37.5° C.) tissue bath containing a physiological salt solution of the following composition (mM): NaCl, 119; KCl 4.6; CaCl2, 1.8; MgCl2, 0.5; NaH2 PO4, 1; NaHCO3, 25; glucose, 11; and indomethacin, 0.005 (to inhibit cyclooxygenase); gassed continuously with 95% O2-%5 CO2. […] Contractile responses are measured on a Grass polygraph via Grass FT-03 force transducers. […]
Potencies of the compounds are evaluated by calculating apparent dissociation constants (KB) for each concentration tested using the standard equation: […]
where dose ratio=antilog[(agonist -log molar EC50 without compound)-(agonist-log molar EC50 with compound)]. The KB values are converted to the negative logarithms and expressed as -log molar KB (i.e. pKB). […] The EC50 values are converted to the negative logarithms and expressed as -log molar EC50. Maximum contractile responses to BANK are determined by expressing the maximum response to BANK as a percentage of the initial contraction caused by capasacin.

T1 sequence (P25103 whole entry): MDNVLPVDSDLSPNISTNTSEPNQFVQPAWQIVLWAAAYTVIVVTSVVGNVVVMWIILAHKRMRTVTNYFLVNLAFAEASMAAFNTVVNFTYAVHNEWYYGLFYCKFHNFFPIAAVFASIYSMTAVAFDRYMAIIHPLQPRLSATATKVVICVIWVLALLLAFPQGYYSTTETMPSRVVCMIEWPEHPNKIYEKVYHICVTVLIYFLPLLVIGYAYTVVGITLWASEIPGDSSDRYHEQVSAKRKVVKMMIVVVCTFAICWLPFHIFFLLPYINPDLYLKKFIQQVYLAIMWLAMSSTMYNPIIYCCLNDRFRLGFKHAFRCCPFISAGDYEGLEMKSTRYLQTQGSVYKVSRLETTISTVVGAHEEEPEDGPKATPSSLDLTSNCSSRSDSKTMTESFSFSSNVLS
T3 sequence (G1SEI7 1-407): as the sequence (P25103 whole entry) above, with S12F, N189D, P369A, D371E, T376N, C386G, D391N, S402Y, V405M counted along it

| Compound | Ki (human NK1 receptor) | Ki (human NK2 receptor) | Kb (NK1 receptor) | Kb (NK2 receptor) |
| --- | --- | --- | --- | --- |
| CC(=O)NC1(c2ccccc2)CCN(CCC(CNCCc2ccccc2)c2ccc(Cl)c(Cl)c2)CC1 (stereo not shown) [Example 3, 4-(4-acetamido-4-phenylpiperidino)-2-(3,4-dichlorophenyl)-N-(phenethyl)butylamine] | 0.43 µM | 0.013 µM | – | – |
| CC(=O)NC1(c2ccccc2)CCN(CCC(CN(Cc2cc(C(F)(F)F)cc(C(F)(F)F)c2)C(C)=O)c2ccc(Cl)c(Cl)c2)CC1 (stereo not shown) [Example 10, 4-(4-Acetamido-4-phenylpiperidino)-N-acetyl-2-(3,4-dichlorophenyl)-N-[3,5-bis(trifluoromethyl)benzyl]butylamine] | – | – | 0.955 µM | 3.16 µM |
